Columns and labels:
LPS-treated mice lungs = test: Example 5: H-LA / D2-LA by oral gavage, then intranasal LPS, lung histology; type: in vivo, BALB/c mice; settings: 6 weeks of H-LA or D2-LA, then 1 mg/kg intranasal LPS, 24 hours
Description: (§1) Lung, stomach and colon samples were fixed with 4% formaldehyde (freshly prepared from paraformaldehyde), paraffin embedded and cut into 2-4 μm sections. For routine histology, all fixed tissue sections were stained with hematoxylin-eosin (H&E). All slides were evaluated at 10 fields each using a Genetic Pro Bino light microscope (A) and photographed with a digital camera (Delta Optical). Stomach and colon tissue sections were analyzed for signs of active and chronic inflammation, formation of lymph follicles, and hyperplasia of epithelial cells. The severity of lung injury was scored according to lung pathological changes, including interalveolar and perivascular hemorrhages, peri-vascular and peribronchial infiltration, perivascular edema, thickness of alveolar wall, alveolar space value, and emphysematous transformations. Lung tissue samples were additionally stained with commercially available Martius Scarlet Blue (MSB) stain kit (Avantik, USA) for fibrin visualization. The presence of homogeneous fibrin masses of yellow, pink or red color in the lung blood vessels were interpreted as thrombotic masses.
In our first experiment, we evaluated the effects of linoleic acid (LA) supplementation on interalveolar septa thickness and AS in LPS-treated mice. […]

[1] = human, in vivo, po; cited from earlier work
[2] = test system: LPS induced acute lung inflammation; test: Example 1: LPS induced acute lung inflammation, interalveolar septa distance; type: in vivo, mice; settings: for Interalveolar space (average spatial distance for the interalveolar septa): 6-week course, then single intranasal LPS
From the text: LPS administration is known to promote inflammation through various mechanisms including secretion of pro-inflammatory cytokines, eicosanoids and induction of ROS. This example employed LPS to ascertain the extent of inflammation arising from ROS induced oxidation of H-AA versus D-AA in the lungs of mice. Specifically, four groups of mice were used. The first group was control mice treated with H-LA control mice. The second group of mice received a 6-week course of D-LA. It is understood that in vivo conversion of a portion of both H-LA and D-LA occurs to provide for AA and 13,13-D2-AA respectively. The third group of mice received a 6-week course of H-AA. The fourth group of mice received a 6-week course of D-AA. All groups then received a single intranasal administration of LPS to induce acute lung inflammation. The degree of the inflammatory response was based on the interalveolar septa distance where the larger the distance of the septa, the greater the degree of inflammation. The animals were sacrificed and the interalveolar septa distance was measured. Table 1 provides an average degree of spatial distance for the interalveolar septa for the results of all groups.

[3] = test system: LPS induced acute lung inflammation; test: Example 2: LPS induced inflammation, H-AA versus D-AA, male and female mice; type: in vivo; settings: 6-week course, then single intranasal LPS
Description: LPS administration was conducted as per Example 1 above except that four groups of mice were used. The first two groups (1 and 2) were control mice (male and female). The next two groups (3 and 4) of mice received a 6-week course of H-AA (male and female). Finally, the last two groups (5 and 6) of mice received a 6-week course of D6-AA (second group). Groups 3, 4, 5 and 6 then received a single intranasal administration of LPS to induce acute lung inflammation. The degree of the inflammatory response was determined per Example 1. Next, the height and distance of the interalveolar septa was determined to provide for the surface area of the inflammation.

healthy mice = settings: in vivo
Description: (§2) Mouse diet was from Research Diets (New Brunswick, NJ) based on fat-free AIN-93G. Fat was added at 11.3% by weight total fat and 0.25% either normal H-AA or D-AA respectively (Table 5).
Male and Female BALB/c and C57BL/6 mice were provided with standard environmental conditions i.e., 22±1° C., 55±5% humidity and 12 h light/dark cycle with free food and water access. At the age of six weeks, animals were split into 8 groups (n=160 total, 20 of each gender) and were continuously fed ad libitum on the diet containing either H-AA or D-AA for 2, 4, 6 or 8 weeks at the daily rate of ca. 5 g of diet per mouse for the duration of the study. The other two groups of animals (n=40, 20 of each gender) received neither PUFA-enriched diets nor LPS served as controls. The body weight and food intake were measured once a week. After completing the appropriate diet course, half of the mice in each group (10 females and 10 males) (i) underwent the procedure of bronchoalveolar lavage (BAL) to accomplish cytological smears, (ii) were subjected to tissue harvesting and collection of colon contents (after humane euthanasia with lethal dose of sodium thiopental, 100 mg/kg intravenously). On the ninth week of this diet course, the other half of the group was administered 1 mg/kg of intranasal (IN) LPS from Escherichia coli O111:B4 (Sigma Aldrich) 24 hours prior to BAL and subsequent euthanasia. 40 D-AA fed animals (20 males, 20 females) were switched to the H-AA diet for washout experiments. […]
as §1, with “masses. […]” for “masses.”
Cell free BAL fluid supernatants as well as colon tissue samples were analyzed using commercially available Mouse IL-1B ELISA Kit (R&D systems, Lot P265854, USA) and the Biotek ELx-808 microplate reader (Biotek, USA) according to the instructions recommended by the manufacturer).

[4] = test system: LPS-induced acute lung injury; test: Example 5: response to intranasal LPS in mice fed AA diets (ALI model); type: in vivo, BALB/c and C57BL/6 mice
Description: as §2
Male and Female BALB/c and C57BL/6 mice were provided with standard environmental conditions i.e., 22±1° C., 55±5% humidity and 12 h light/dark cycle with free food and water access. At the age of six weeks, animals were split into 8 groups (n=160 total, 20 of each gender) and were continuously fed ad libitum on the diet containing either H-AA or D-AA for 2, 4, 6 or 8 weeks at the daily rate of ca. 5 g of diet per mouse for the duration of the study. The other two groups of animals (n=40, 20 of each gender) received neither PUFA-enriched diets nor LPS served as controls. The body weight and food intake were measured once a week. After completing the appropriate diet course, half of the mice in each group (10 females and 10 males) (i) underwent the procedure of bronchoalveolar lavage (BAL) to accomplish cytological smears, (ii) were subjected to tissue harvesting and collection of colon contents (after humane euthanasia with lethal dose of sodium thiopental, 100 mg/kg intravenously). On the ninth week of this diet course, the other half of the group was administered 1 mg/kg of intranasal (IN) LPS from Escherichia coli O111:B4 (Sigma Aldrich) 24 hours prior to BAL and subsequent euthanasia. 40 D-AA fed animals (20 males, 20 females) were switched to the H-AA diet for washout experiments.
Cell differential counts were performed on smear slides from resuspended cell pellets of BAL, using commercially available May-Grünwald-Giemsa staining kits. All slides were evaluated in a light microscope (Optec BK5000) at ×200 magnification. These cell counts such as lymphocytes, neutrophils, plasmacytes and macrophages were obtained from 10 fields of each slide.
as §1
We challenged mice fed AA-diets for 6 weeks using LPS treatment. […] Perivascular edema, signs of thrombosis, alveolar wall thickening, irregular distribution of air spaces, and focal areas of alveolar hemorrhage were also observed. We preferred intranasal administration to the more extreme intratracheal route that induces IL-1β which in turn amplifies inflammation making it difficult to distinguish between the early and late consequences of the LPS challenge. Indeed, 24 hours after intranasal administration of LPS at a dose of 1 mg/kg, there was no significant increase in the IL-1B content in BAL fluid or colon homogenates compared to animals not treated with LPS regardless of type or duration of the diets. Intranasal LPS 24 hours post administration increased neutrophils in BAL fluid in all treated groups regardless of gender or form of AA diets.

SMILES	alveolar wall / interalveolar septum thickness (in words) (LPS-treated mice lungs)	safety record [1]	Interalveolar space (average spatial distance for the interalveolar septa) [2]	reduction in the spatial distance for the interalveolar septa ([2]; D-LA relative to H-LA, comparator for D-AA not stated)	Interalveolar space ([3]; female mice)	Interalveolar surface area ([3]; female mice)	Interalveolar space ([3]; male mice)	Interalveolar surface area ([3]; male mice)	alveolar wall thickness, H-AA versus D-AA cohorts (healthy mice; both, BALB/c and C57BL/6, mouse, 8 weeks)	alveolar spaces (healthy mice; mouse)	average thickness of interalveolar septa, H-AA versus D-AA (healthy mice; mouse)	tolerability (healthy mice; mouse)	LPS-induced interalveolar septa / wall thickening (in words) ([4]; 6-week diet, then single intranasal LPS)	LPS-induced lung tissue damage, inflammation and emphysema (in words) ([4]; dietary consumption prior to LPS exposure)
[2H]C([2H])(/C=C\CCCCC)/C=C\CCCCCCCC(=O)O [D-LA, 11,11-D2-Linoleic Acid]	small, but statistically significant decrease	impressive safety record	10.7 μm	~25%										
CCCCC/C=C\C/C=C\C/C=C\C/C=C\CCCC(=O)O [H-AA, arachidonic acid, reference compound]			9.1 μm		~9.7 μm	~380 μm^2	~8.1 μm	~540 μm^2	significantly (p≤0.05) thicker	No relevant changes	did not significantly differ	well tolerated without apparent adverse reactions	significantly increased	did not improve and even aggravated
CCCCC/C=C\C/C=C\CCCCCCCC(=O)O [H-LA, linoleic acid]	significantly higher		14.2 μm											
